# Legend:
# [1] = tested on: THP-1 cells; assay: IL-8 and TNF-α release from THP-1 cells treated with the compound alone or with LPS; format: cell-based, human; conditions: 20 h; for TNF-α release from naive THP-1 cells: agonist alone; for IL-8 release from naive THP-1 cells: MDP 2–200 µM, C12-iE-DAP 2–50 µM; for effect on LPS-induced TNF-α production: agonist 10 µM in combination with 1 ng/mL LPS
# Protocol: THP-1 cells represent a convenient, robust, and reproducible alternative, which enables intra-assay comparison. A consistent protocol is of key importance to evaluate the compounds in a reproducible and unbiased manner. […] Recognition of an NOD1/NOD2 agonist triggers a signaling pathway leading to the activation of NF-κB and the production of pro-inflammatory cytokines (e.g., TNF-α, IL-1β, IL-6, IL-8). To define the optimal experimental conditions, preliminary experiments were conducted with C12-iE-DAP (lauroyl-γ-D-glutamyl-meso-diaminopimelic acid), an acylated derivative of iE-DAP, as a reference NOD1 agonist, and MDP as a NOD2 agonist. For isolated stimulation of NOD2 and NOD1 receptors, increasing concentrations of MDP (2–200 µM) and C12-iE-DAP (2–50 µM) were used, and the exposure time of 20 h was chosen based on previous experiments using THP-1 cells.
# Figure 1 Dose-dependent effect of NOD1/NOD2 agonists on IL-8 (A) and TNF-α (B) secretion from THP-1 cells. IL-8 and TNF-α release from THP-1 cells were measured following 20 h treatment with increasing concentrations (up to 200 µM) of either C12-iE-DAP (NOD1 agonist) or MDP (NOD2 agonist). Columns represent means of duplicates ± SD of three independent experiments; * p < 0.05 vs. CTRL (Mann–Whitney test). Synergy of NOD1/NOD2 agonists and LPS (TLR4 agonist) on IL-8 (C) and TNF-α (D) secretion. IL-8 and TNF-α release from THP-1 cells were measured following 20 h treatment with either C12-iE-DAP or MDP, both at 2 and 10 µM, in the presence or absence of increasing concentrations of LPS (1 or 10 ng/mL). Columns represent means of duplicates ± SD of three independent experiments; * p < 0.05 vs. CTRL (Mann–Whitney test).
# (§1) For all experiments, THP-1 cells (Istituto Zooprofilattico di Brescia, Brescia, Italy) were diluted to 10^6 cells/mL in RPMI 1640 containing 2 mM L-glutamine, 0.1 mg/mL streptomycin, 100 IU/mL penicillin, 50 μM 2-mercaptoethanol, and supplemented with 10% heat-inactivated fetal calf serum (media) and cultured at 37 °C in 5% CO2. The experiments were carried out on passages 3–12. To evaluate IL-8 and TNF-α production, cultures were set up in 24-well culture plates containing 500 μL of cells. They were pretreated with selected NOD antagonists at increasing concentrations for 1 h before the addition of either MDP or C12-iE-DAP (both at 10 µM) and then incubated for 20 h. Each concentration was tested in duplicate, and untreated cells were exposed to DMSO, which represented the vehicle control (not exceeding 0.2% final concentration). In synergy studies, cells were additionally stimulated with lipopolysaccharide (LPS, from Escherichia coli serotype 0127:B8, Sigma) at a final concentration of 1–10 ng/mL, as indicated in the figure legends. Cell-free supernatants were collected at 20 h by centrifugation at 3000 rpm for 5 min and stored at −80 °C.
# (§2) IL-8 and TNF-α release from THP-1 cells were measured in cell-free supernatants obtained by centrifugation at 3000 rpm for 5 min and stored at −80 °C until measurement. IL-8 and TNF-α production were assessed by specific sandwich ELISA (Immunotools, Friesoythe, Germany; eBioScience/R&D Systems, Minneapolis, MN, USA). Results are expressed in pg/mL. The limit of detection was 15.6 pg/mL for IL-8 and 4 pg/mL for TNF-α.
# [2] = tested on: NOD1/2–TLR4 synergy; assay: NOD1/2–TLR4 synergy: TNF-α release from co-stimulated THP-1 cells; format: cell-based, human; conditions: antagonist 10 µM 1 h, NOD agonist 10 µM + LPS 1 ng/mL, 20 h
# Protocol: Figure 5 Effect of selected NOD1/NOD2 antagonists on NOD1/2–TLR4 synergy. The THP-1 cells were preincubated for 1 h with NOD antagonists (at 10 µM) before being stimulated with either C12-iE-DAP or MDP (both at 10 µM) and 1 ng/mL LPS for 20 h, followed by determination of TNF-α release in the supernatant. Columns represent means of duplicates ± SD of three independent experiments. * p < 0.05, ** p < 0.01 and *** p < 0.001 vs. MDP/LPS- or C12-iE-DAP/LPS-treated cells (Kruskal-Wallis test and post hoc Dunn’s multiple comparison test).
# For all experiments, THP-1 cells (Istituto Zooprofilattico di Brescia, Brescia, Italy) were diluted to 10^6 cells/mL in RPMI 1640 containing 2 mM L-glutamine, 0.1 mg/mL streptomycin, 100 IU/mL penicillin, 50 μM 2-mercaptoethanol, and supplemented with 10% heat-inactivated fetal calf serum (media) and cultured at 37 °C in 5% CO2. The experiments were carried out on passages 3–12. To evaluate IL-8 and TNF-α production, cultures were set up in 24-well culture plates containing 500 μL of cells. […]
# as §2, with “Results are expressed in pg/mL. The limit of detection was 15.6 pg/mL for IL-8 and 4 pg/mL for TNF-α.” left out
# [3] = tested on: THP-1 cells; assay: LDH leakage cytotoxicity in THP-1 cells; format: cell-based, human; conditions: 20 h
# Protocol: Prior to investigating the effects of selected NOD antagonists on cytokine production, their potential cytotoxicity for THP-1 cells was assessed. Cell viability was assessed by leakage of LDH from damaged cells. LDH is a well-known indicator of cell membrane integrity and cell viability. Cells were treated for 20 h with the compound of interest at concentrations of up to 50 µM. LDH activity was determined in cell-free supernatants using a commercially available colorimetric kit (Takara Bio Inc., Kusatsu, Japan). Results are expressed as OD.
# [4] = tested on: NOD1; conditions: reporter assay, NOD-overexpressing HEK cells; cited from earlier work
# [5] = tested on: NOD2; conditions: reporter assay, NOD-overexpressing HEK cells; cited from earlier work
# [6] = target: T1, NOD1 (Homo sapiens, UniProt Q9Y239); assay: C12-iE-DAP (NOD1 agonist)-induced IL-8 secretion from THP-1 cells; format: cell-based; conditions: 1 h pretreatment, C12-iE-DAP 10 µM, 20 h, read-out: IC50 (NOD1), inhibition of IL-8 release
# T1 construct: THP-1 cells also express high levels of native functional NOD1 and NOD2 and respond to NOD stimulation by IL-8 secretion; endogenous in cells; host or cells: THP-1 cells (Istituto Zooprofilattico di Brescia)
# T1 sequence (Q9Y239 1-953): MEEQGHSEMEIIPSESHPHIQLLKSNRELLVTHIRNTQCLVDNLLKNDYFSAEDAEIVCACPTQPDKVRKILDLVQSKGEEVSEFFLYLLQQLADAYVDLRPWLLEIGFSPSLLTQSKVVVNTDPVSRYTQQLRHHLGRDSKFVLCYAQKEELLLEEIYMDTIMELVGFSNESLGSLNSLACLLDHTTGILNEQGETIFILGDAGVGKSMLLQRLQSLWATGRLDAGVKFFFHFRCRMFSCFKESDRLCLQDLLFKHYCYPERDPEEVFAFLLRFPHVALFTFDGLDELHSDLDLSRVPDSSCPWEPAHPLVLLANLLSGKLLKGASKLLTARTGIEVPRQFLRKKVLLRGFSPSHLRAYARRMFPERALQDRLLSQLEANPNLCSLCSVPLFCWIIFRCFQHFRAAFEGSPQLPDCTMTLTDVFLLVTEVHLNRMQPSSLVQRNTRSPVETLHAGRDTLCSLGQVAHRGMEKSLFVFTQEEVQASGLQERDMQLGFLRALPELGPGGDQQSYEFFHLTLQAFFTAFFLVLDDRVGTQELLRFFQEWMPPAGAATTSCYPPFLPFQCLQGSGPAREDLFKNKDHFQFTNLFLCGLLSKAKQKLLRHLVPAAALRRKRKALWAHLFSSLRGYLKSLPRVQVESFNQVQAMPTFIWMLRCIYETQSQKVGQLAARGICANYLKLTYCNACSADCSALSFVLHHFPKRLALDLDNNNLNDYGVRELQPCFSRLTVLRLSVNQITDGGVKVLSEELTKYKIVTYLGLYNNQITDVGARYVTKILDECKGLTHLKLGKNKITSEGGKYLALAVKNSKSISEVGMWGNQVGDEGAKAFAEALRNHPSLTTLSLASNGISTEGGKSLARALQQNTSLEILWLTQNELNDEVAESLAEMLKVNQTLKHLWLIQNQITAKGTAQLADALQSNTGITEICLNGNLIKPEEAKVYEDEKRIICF
# Protocol: For all experiments, THP-1 cells (Istituto Zooprofilattico di Brescia, Brescia, Italy) were diluted to 10^6 cells/mL in RPMI 1640 containing 2 mM L-glutamine, 0.1 mg/mL streptomycin, 100 IU/mL penicillin, 50 μM 2-mercaptoethanol, and supplemented with 10% heat-inactivated fetal calf serum (media) and cultured at 37 °C in 5% CO2. The experiments were carried out on passages 3–12. To evaluate IL-8 and TNF-α production, cultures were set up in 24-well culture plates containing 500 μL of cells. They were pretreated with selected NOD antagonists at increasing concentrations for 1 h before the addition of either MDP or C12-iE-DAP (both at 10 µM) and then incubated for 20 h. Each concentration was tested in duplicate, and untreated cells were exposed to DMSO, which represented the vehicle control (not exceeding 0.2% final concentration). […] Cell-free supernatants were collected at 20 h by centrifugation at 3000 rpm for 5 min and stored at −80 °C.
# [7] = target: T2, NOD2 (Homo sapiens, UniProt Q9HC29); assay: MDP (NOD2 agonist)-induced IL-8 secretion from THP-1 cells; format: cell-based; conditions: 1 h pretreatment, MDP 10 µM, 20 h, read-out: IC50 (NOD2), inhibition of IL-8 release
# T2 construct: THP-1 cells also express high levels of native functional NOD1 and NOD2 and respond to NOD stimulation by IL-8 secretion; endogenous in cells; host or cells: THP-1 cells (Istituto Zooprofilattico di Brescia)
# T2 sequence (Q9HC29 whole entry): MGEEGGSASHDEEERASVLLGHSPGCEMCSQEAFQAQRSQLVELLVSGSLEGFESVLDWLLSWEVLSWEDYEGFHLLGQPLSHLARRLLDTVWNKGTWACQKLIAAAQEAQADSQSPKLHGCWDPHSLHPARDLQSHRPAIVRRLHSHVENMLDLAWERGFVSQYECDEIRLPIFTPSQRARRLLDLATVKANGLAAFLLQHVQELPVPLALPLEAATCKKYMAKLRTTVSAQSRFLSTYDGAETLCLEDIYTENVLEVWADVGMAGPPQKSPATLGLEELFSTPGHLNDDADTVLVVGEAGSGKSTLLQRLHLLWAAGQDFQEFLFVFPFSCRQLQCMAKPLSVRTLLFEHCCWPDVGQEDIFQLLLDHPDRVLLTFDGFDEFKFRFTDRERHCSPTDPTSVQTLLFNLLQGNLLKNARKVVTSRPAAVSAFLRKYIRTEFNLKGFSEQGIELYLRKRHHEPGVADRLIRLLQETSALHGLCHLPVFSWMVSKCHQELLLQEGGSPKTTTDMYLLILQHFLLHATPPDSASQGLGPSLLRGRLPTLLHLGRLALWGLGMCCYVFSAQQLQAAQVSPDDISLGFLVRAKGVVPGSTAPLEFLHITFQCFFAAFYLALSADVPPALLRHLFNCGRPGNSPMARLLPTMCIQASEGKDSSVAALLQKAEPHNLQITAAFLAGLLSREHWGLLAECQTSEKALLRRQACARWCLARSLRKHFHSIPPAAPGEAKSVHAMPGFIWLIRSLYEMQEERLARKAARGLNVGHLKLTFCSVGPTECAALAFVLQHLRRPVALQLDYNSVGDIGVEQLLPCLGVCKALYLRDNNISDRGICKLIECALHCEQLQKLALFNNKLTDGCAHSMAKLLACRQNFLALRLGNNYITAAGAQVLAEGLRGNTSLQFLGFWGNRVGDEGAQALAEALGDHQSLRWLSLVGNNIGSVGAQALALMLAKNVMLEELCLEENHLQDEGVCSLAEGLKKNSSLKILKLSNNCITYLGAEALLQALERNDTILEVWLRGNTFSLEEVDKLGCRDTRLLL
# Protocol: as §1, §2
# All experiments were performed at least three times, with average values expressed as means ± standard deviation (SD). Statistical analyses were performed using GraphPad Prism 6 (La Jolla, CA, USA). Statistical significance was determined either with the Mann-Whitney or Kruskal-Wallis followed by a post hoc Dunn’s multiple comparison test, as indicated in the figure legends. Differences were considered nonsignificant for p > 0.05, significant (*) for p < 0.05, very significant (**) for p < 0.01 and extremely significant (***) for p < 0.001. IC50 values of NOD1/2 inhibition were calculated by a nonlinear regression model using GraphPad Prism 6 software.
Structure (SMILES),IC50 [6] [µM],IC50 [7] [µM],TNF-α release from naive THP-1 cells [1],IL-8 release from naive THP-1 cells [1],effect on LPS-induced TNF-α production [1],effect on TNF-α release from co-stimulated cells [2],concentrations showing cytotoxicity (LDH leakage) [3] [µM],IC50 [4] [µM],IC50 [5] [µM]
"CC(=O)N[C@H]1C(O)O[C@H](CO)[C@@H](O)[C@@H]1O[C@H](C)C(=O)N[C@@H](C)C(=O)N[C@H](CCC(=O)O)C(N)=O (mixture of isomers) [MDP, muramyl dipeptide]",–,–,neither MDP nor C12-iE-DAP produced substantial TNF-α release,dose-dependent increase in IL-8 release,significantly potentiated the production of TNF-α,–,–,–,–
"CCCCCCCCCCCC(=O)N[C@H](CCC(=O)N[C@@H](CCC[C@@H](N)C(=O)O)C(=O)O)C(=O)O [C12-iE-DAP, lauroyl-γ-D-glutamyl-meso-diaminopimelic acid]",–,–,neither MDP nor C12-iE-DAP produced substantial TNF-α release,dose-dependent increase in IL-8 release,significantly potentiated the production of TNF-α,–,–,–,–
O=C(Cn1c(CCNC(=O)c2ccccc2)nc2ccccc21)Nc1ccc2c(c1)CCC2 [GSK669],> 50,1.57 ± 0.15,–,–,–,reduced TNF-α release to the level induced by the TLR4 agonist alone,≥ 10,> 50,3.2
CCOC(=O)c1cc2ccccc2n1S(=O)(=O)c1ccc(C)cc1 [SZA-39],27.5 ± 6.85,14.4 ± 1.97,–,–,–,–,–,5.74,6.45

# Now from value to compound, other results behind:
IC50 [6] [µM],IC50 [7] [µM],Structure (SMILES),TNF-α release from naive THP-1 cells [1],IL-8 release from naive THP-1 cells [1],effect on LPS-induced TNF-α production [1],effect on TNF-α release from co-stimulated cells [2],concentrations showing cytotoxicity (LDH leakage) [3] [µM],IC50 [4] [µM],IC50 [5] [µM]
–,> 50,Cc1ccc(S(=O)(=O)n2c(N)nc3ccccc32)cc1 [ML130],–,–,–,–,–,–,54.9
10.5 ± 1.32,32.2 ± 5.16,C/C=C/Cn1c(=O)c2[nH]c(SCCCc3ccccc3)nc2n(C)c1=O [ML146],–,–,–,–,–,4.35,12.9

# Reference: publication PMC6747088, “THP-1 Cells and Pro-Inflammatory Cytokine Production: An In Vitro Tool for Functional Characterization of NOD1/NOD2 Antagonists” (International Journal of Molecular Sciences, 2019)
